Where no end group is shown, it is not given here.
Assays:
[1] = system: IMR-32 cells; assay: Nuclear translocation, Percoll density gradient fractionation; assay type: cell-based, human
Procedure: The cells were washed twice in media at 4° C. and resuspended in cold isotonic sucrose. The labeled cells were passed through a ballbearing homogenizer three times to disrupt cell membranes while leaving approximately 95% of the cell nuclei intact, according to the method of Balch et al., Arch. Biochem. Biophys., vol. 240, p. […] The cell homogenate was mixed with Percoll to give a final concentration of 0.292% Percoll and spun at 20,400 rpm in a Beckman 40.2 rotor for 45 min to generate a density gradient. Density marker beads (Pharmacia) were used to indicate density levels in the tube. The contents of the tube were fractionated in an ISCO Density Gradient Fractionator. The resulting tubes were assayed for content of radiolabeled somatostatin or analogs, DNA to indicate nuclei, protein, the plasma membrane marker 5′-nucleotidase, and the lysosome marker N-acetylglucosaminidase. The usual assumption was made that the radioactivity measured in fractions rich in a certain cell component was in fact associated with that component; e.g., the radioactivity measured in a fraction rich in plasma membrane was due to association of the radiolabeled compound with the plasma membrane.

[2] = system: human placental-derived vascular endothelial cells; assay: Binding and internalization in angiogenic vascular endothelial cells; assay type: cell-based; conditions: 500,000 cells, 500,000 cpm, acid wash, FIG. 17
Description: Human placental-derived vascular endothelial cells were used to assay for cell binding of the somatostatin analog, ^125I-JIC-2D. The radioligand, a somatostatin analog, ^125I-JIC-2D, was made by solid phase peptide synthesis as described in U.S. Pat. No. 5,597,894. This peptide has an amino acid sequence of the following: D-Lys-D-Tyr-D-Lys-D-Tyr-D-Lys-C[Cys-Phe-D-Trp-Lys-Thr-Cys]-Thr-NH2. The cells were obtained by growing discs of human placental veins in fibrinclots for 14 days. […] These discs and their angiogenic sprouts are harvested mechanically and dissociated by vortexing. The vein discs are then discarded and the endothelial cells pooled. Cells were harvested, counted with a hemocytometer, and resuspended in binding buffer (Minimum Essential Medium (MEM), 10 mM Hepes, 0.01% BSA). A standard assay used 500,000 cells in 1 ml of binding buffer. […] At the termination of the experiment, the incubation medium was removed, the cells were rinsed twice with Hanks balanced salt solution (HBSS), and the radioactivity in the cells determined using a gamma counter. This level of radioactivity represents total binding, which includes both membrane-bound and internalized fractions. Specific binding was determined by calculating the difference in the levels of measured radioactivity without the unlabeled competitor minus the radioactivity with the unlabeled competitor. […]

[3] = system: T47D breast cancer cell line; assay: Specific binding of radiolabeled estradiol with time, T47D; assay type: cell-based, human; conditions: T-47D
Procedure: (§1) To follow the time of uptake of a steroid hormone, three cell lines were incubated with a radiolabeled estrogen using procedures similar to those of Example 2. Three breast cancer cell lines were used; MCF-7 (ATCC No. HTB-22), T47D (ATCC No. HTB-133), and ZR-75-1 (ATCC No. CRL-1500). The estrogen used was 17-β-estradiol, the major secreted estrogen in humans. The radiolabeled compound was ^125I-17-β-estradiol, which was either purchased from New England Nuclear or synthesized by the following procedure: A 10 ml Sephadex G-10 column was equilibrated for 1 hr with 0.1 M PBS. A solution was prepared of 12.5 μg estradiol conjugate (BL-43), 25 μl methanol, 50 μl 0.05 M phosphate buffer pH 7.5, 3 mCi Na^125I, and 25 μl of a mixture of 10 mg chloramine-T and 10 ml 0.05 M phosphate buffer. After mixing for 40 sec, 25 μl of sodium metabisulfite 20 mg/10 ml 0.05 M Phosphate buffer was added and mixed an additional 40 sec. The mixture was then added to the Sephadex column and eluted first with 0.1 M PBS. Finally, the radiolabeled estradiol was eluted with 0.1 M PBS and 1,4 Dioxane (70:30).
(§2) The standard binding procedure described in Example 2 was used except that radiolabeled estradiol was used as the ligand with 1000× excess non-radioactive estradiol as the competitor. Unlike peptides that initially must bind on the plasma membrane, steroids bind only to intracellular receptors. Thus no radioactivity on the membrane should be found.

[4] = system: ZR-75-1 breast cancer cell line; assay: Specific binding of radiolabeled estradiol with time, ZR-75-1; assay type: cell-based, human
Procedure: as §1, §2

[5] = system: MCF-7 breast cancer cell line; assay: Specific binding of radiolabeled estradiol with time, MCF-7; assay type: cell-based, human
Procedure: as §1, §2

[6] = system: human placental vein discs (angiogenic vascular tissue); assay: Human Placental Vein Angiogenesis Model; assay type: cell-based; conditions: 50 μCi/mL (or equivalent amounts)
Description: Watson et al., “Up-Regulation of Somatostatin Receptor Subtype 2. (SST-2) mRNA Occurs During the Transformation of Human Endothelium to the Angiogenic Phenotype,” Paper Presented at the 12th International Symposium on Regulatory Peptides, Copenhagen, Denmark, September 1996; J. C. Watson et al., “SST-2 Gene Expression Appears During Human Angiogenesis,” Regulatory Peptides, vol. 64, p. 206 (Abstract) (1996); and J. C. Watson et al., “Breast Cancer Increases Initiation of Angiogenesis Without Accelerating Neovessel Growth Rate,” Surgery, vol. 122, pp. 508-14 (1997). Human placental veins were cut into discs of 2 mm diameter and were incorporated into a 0.3% fibrinogen gel. This gel was then overlaid with tissue culture media containing 10-20% fetal calf serum (FCS). Under normal conditions, endothelial cords will begin to sprout from the transected cut edge of the vein discs within six days.
These vein discs were placed into wells of three separate culture plates. One culture plate, the control sample, was allowed to grow without treatment. […] The discs were then incubated for fourteen days. After 14 days the culture plates were examined for the number of wells in which angiogenic growth was initiated. […] The molar concentration of the radiolabeled somatostatin analog added to the culture plates was in the femtomolar range (10^−15). This concentration is 1000× or more below the concentration of unlabeled somatostatin analog that is known to inhibit angiogenesis; a concentration of 10^−5 M to 10^−8 M. Thus any effect was due to the radiolabel and not just the presence of the somatostatin analog. […] Only the radiolabel connected to the somatostatin analog would be incorporated into the DNA. Thus the greater decrease is due to this incorporation and the Auger emission on DNA.
Using a digital image analyzer, the mean area of the sprouting tissue surrounding the discs was measured.
To measure the growth rate of angiogenic vascular tissue, every two days during the 14-day incubation period, the length of sprouts were measured. […]

[7] = system: neuroendocrine cancers expressing the somatostatin receptor; assay: Pilot clinical trial of monthly 180 mCi doses; assay type: in vivo, human; conditions: ten patients
Procedure: For six months, pilot clinical trials were conducted in ten human patients with progressive metastatic indolent and symptomatic neuroendocrine cancers expressing the somatostatin receptor. […] The first monthly dose was a bolus injection of 180 mCi. The second monthly dose was infusion of 180 mCi over 72 hr. The third monthly dose was infusion of 180 mCi over 24 hr. Thereafter, all monthly doses were infusion of 180 mCi over 24 hr. Clinical benefits (as evidenced by reduced pain, weight gain, reduced malaise, etc.) occurred in 6 of the 10 neuroendocrine (carcinoid/islet cell) patients. Partial radiographic responses (greater than 50% reduction in the product of perpendicular tumor diameters) occurred in 2 patients, and significant tumor necrosis developed in 7 of the 10 neuroendocrine patients. Treatment-related toxicity included 2 Grade III platelet, 1 Grade II WBC, 1 Grade I WBC and 2 Grade I Hb on the NCI (National Cancer Institute) grading scale.

[8] = system: tumor in the left side of the neck (metastatic small cell carcinoma); conditions: in vivo
Procedure: During and after each administration of the last eight doses, a tumor in the left side of the neck was monitored for radioligand uptake with an ion chamber survey meter, a Victoreen 450P ion chamber, which measures external gamma dose rates. Administration of the initial seven doses were by bolus inject ion. The last three doses were delivered by infusion with various activities of radioligand.
The external gamma dose rates from radioligand accumulation in the neck tumor area were measured immediately and 24 hr after injection. After the treatment of the fifth month, the patient was monitored for radioligand uptake for an extended period—at 2, 4, and 8 days after the injection.
Four months after the final bolus dose, the first dose by infusion (“Infusion 1”) was administered. A dose equivalent to the previous bolus dose (175.9 mCi) was given, but the radioligand was administered by infusion over 72 hr at a constant rate of 2.5 mCi/hr.
One month later, in “Infusion 2,” the total dose was increased to 389.2 mCi. By infusion, 189.8 mCi of the radioligand was given over the first 24 hr, 108.6 mCi over the second 24 hr, and 90.8 mCi over the third 24 hr. For each 24 hr period, the infusion rate was kept constant.
One month later, a third dose was administered by infusion (“Infusion 3”). A dose of 301 mCi was infused the first 24 hr period. […]

[9] = cited from earlier work

^125I-somatostatin: radiolabeled native somatostatin, very short-lived peptide (AGCKNFFWKTFTSC; ends and bridges not checked; also: 125I label, site not given here; UniProt P61278 103-116, looked up)
cellular distribution of radioactivity (membrane vs nuclear fractions) ([1]; 1 hr incubation): both membrane binding and small amounts of nuclear binding | cellular distribution of radioactivity (membrane vs nuclear fractions) ([1]; 4 hr incubation): plasma membrane binding appeared to have peaked and the nuclear fraction was dissipating | cellular distribution of radioactivity (membrane vs nuclear fractions) ([1]; 24 hr incubation): essentially no plasma membrane or nuclear binding was seen

D-Lys-D-Tyr-D-Lys-D-Tyr-D-Lys-C[Cys-Phe-D-Trp-Lys-Thr-Cys]-Thr-NH2 [^125I-JIC-2D]
binding and internalization [2]: the vast majority of the radioligand was internalized into the cell

^125I-17-β-estradiol
Specific Binding ([3]; 1 Hr): 401 CPM | Specific Binding ([3]; 4 Hr): 506 CPM | Specific Binding ([3]; 24 Hr): 532 CPM | Specific Binding ([3]; 48 Hr): 455 CPM | Specific Binding ([4]; ZR-75-1, 1 Hr): 4102 CPM | Specific Binding ([4]; ZR-75-1, 4 Hr): 4865 CPM | Specific Binding ([4]; ZR-75-1, 24 Hr): 3370 CPM | Specific Binding ([4]; ZR-75-1, 48 Hr): 3057 CPM | Specific Binding ([5]; MCF-7, 1 Hr): 1605 CPM | Specific Binding ([5]; MCF-7, 4 Hr): 2253 CPM | Specific Binding ([5]; MCF-7, 24 Hr): 4109 CPM | Specific Binding ([5]; MCF-7, 48 Hr): 731 CPM

^111In-Cl
growth rate (mm/day) of angiogenic vascular tissue ([6]; 14-day incubation, FIG. 20): substantially below that of the control | % initiation of angiogenic growth ([6]; 14 days, FIG. 18): substantially less than the control plate | vessel area (mm^2) of sprouting tissue ([6]; 14 days, FIG. 19): substantially less

C[C@@H](O)[C@@H]1NC(=O)[C@H](CCCCN)NC(=O)[C@@H](Cc2c[nH]c3ccccc23)NC(=O)[C@H](Cc2ccccc2)NC(=O)[C@@H](NC(=O)[C@@H](Cc2ccccc2)NC(=O)CN2CCN3CCN(CC(=O)O)CC(=O)[O][111In]([O]C(=O)C3)[O]C(=O)C2)CSSC[C@@H](C(=O)N[C@H](CO)[C@@H](C)O)NC1=O [^111In-pentetreotide, ^111In-DTPA-D-Phe^1-octreotide]
Treatment-related toxicity: Grade I Hb (NCI scale), number of cases [7]: 2 | Treatment-related toxicity: Grade I WBC (NCI scale), number of cases [7]: 1 | Treatment-related toxicity: Grade II WBC (NCI scale), number of cases [7]: 1 | Treatment-related toxicity: Grade III platelet (NCI scale), number of cases [7]: 2 | half-life of exponential decay of tumor radioactivity (approached physical half-life of the radioligand) ([8]; female, human): ~67.3 h | persistence of tumor foci on gamma camera scintigraphy [8]: still identifiable by gamma scintigraphy thirteen days after completion of the last infusion dose

CC(C)[C@@H]1NC(=O)[C@H](CCCCN)NC(=O)[C@@H](Cc2c[nH]c3ccccc23)NC(=O)[C@H](Cc2ccc(O)cc2)NC(=O)[C@@H](NC(=O)[C@H](N)Cc2ccc3ccccc3c2)CSSC[C@@H](C(=O)N[C@H](C(N)=O)[C@@H](C)O)NC1=O [lanreotide]
biologic half-life [9]: 60-90 min

From patent publication US6630123B1, “Method to enhance tissue accumulation of radiolabeled compounds” (Board of Supervisors of Louisiana State University and …, priority 1997, dated 2003)
